Test results from US9029322B2, “Compounds for enhancing p21 expression and methods of use thereof” (Cornell University, priority 2007, dated 2015).

What was measured:
[1] = system: mouse or human p21 promoter; assay: p21-luciferase reporter screen in stably transfected HT22 cells; assay type: cell-based; conditions: HT22 lines stably expressing p21-luciferase; positive control
Description: To identify novel activators of p21, fragments of the mouse or human p21 promoter were subcloned into the pGL3 basic promoter-reporter construct (see promoter sequence information). The resultant p21-luciferase reporter plasmids were each then stably transfected into a mouse hippocampal cell line, HT22. […] Drugs were added to cells stably expressing p21-luciferase in a 96 well format. The HDAC inhibitor trichostatin A was used as a positive control. After 12 hours of drug treatment, the cells were lysed and luciferase activity was measured using a desktop luminometer. Cell viability was monitored in parallel, so that agents that induce toxicity can quickly be eliminated. Secondary screens including real time PCR or Western blots of p21 were monitored in primary neurons.

[2] = system: arylhydrocarbon receptor (AHR); assay: Microarray gene analysis on spinal cord tissue RNA after intraperitoneal dosing; assay type: in vivo, rats
Description: Based on available dosing data, rats were dosed with 1, 5, 10, 15 or 30 mg/kg ciclopirox (intraperiotoneal; 3 animals per concentration). Spinal cord, liver and skeletal muscle tissue was harvested 6-hours after drug delivery. Real-time rt-PCR was performed on RNA extracted from tissues to examine the expression of p21waf1/cip1, arginase-1, and VEGF in order to determine what might be the most efficacious dose.
Microarray gene analysis was also performed on spinal cord tissue RNA to determine gene expression changes that correlate with treatment and dose in an unbiased manner.

[3] = system: contusion injury at the level of T-8; assay: Spinal cord contusion injury, single injection after injury; assay type: in vivo, rats

Structure (SMILES) | p21-luciferase response [1] | AHR gene expression change in spinal cord (microarray) ([2]; rats, 1, 5, 10, 15 or 30 mg/kg intraperitoneal, tissue harvested 6 hours after drug delivery) | induction of transcription in the spinal cord ([2]; rats, intraperitoneal, in vivo) | blood brain barrier penetration ([2]; rats, intraperitoneal, inferred from spinal cord gene expression changes) | protection (lesion volume) ([3]; single 30 mg/kg intraperitoneal injection 30 minutes after contusion injury at T-8) | effect on behavior (functional improvement) ([3]; single injection after injury)
CC(/C=C/C(=O)NO)=C\[C@@H](C)C(=O)c1ccc(N(C)C)cc1 [trichostatin A] | predicted increases in p21-luciferase |  |  |  |  | 
Cc1cc(C2CCCCC2)n(O)c(=O)c1 [ciclopirox] |  | dose-dependent ciclopirox-regulated gene | could induce transcription in the spinal cord | could penetrate the blood brain barrier | significant protection (reduced lesion volume) | little functional improvement
